# How the values were obtained:
# blackgrass = assay: Test B pre/postemergence blackgrass; assay type: in vivo, Alopecurus myosuroides
# Outline: (§1)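 Herbicidal effect was estimated by eye on a ten-point control scale after plants spent twelve to sixteen days in a greenhouse following soil or foliar treatment. Foliar sprays targeted plants at one to four leaves; all doses were formulated in a non-phytotoxic solvent with surfactant.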
# surinam grass = assay: Test B pre/postemergence surinam grass; assay type: in vivo, Brachiaria decumbens
# Outline: as §1
# cocklebur = assay: Test B pre/postemergence cocklebur; assay type: in vivo, Xanthium strumarium
# Outline: as §1
# corn = assay: Test B pre/postemergence corn; assay type: in vivo, Zea mays
# Outline: as §1
# crabgrass = assay: Test B pre/postemergence crabgrass; assay type: in vivo, Digitaria sanguinalis
# Outline: as §1
# giant foxtail = assay: Test B pre/postemergence giant foxtail; assay type: in vivo, Setaria faberii
# Outline: as §1
# morningglory = assay: Test B pre/postemergence morningglory; assay type: in vivo, Ipomoea hederacea
# Outline: as §1
# pigweed = assay: Test B pre/postemergence pigweed; assay type: in vivo, Amaranthus retroflexus
# Outline: as §1
# rape = assay: Test B pre/postemergence rape; assay type: in vivo, Brassica napus
# Outline: as §1
# soybean = assay: Test B pre/postemergence soybean; assay type: in vivo, Glycine max
# Outline: as §1
# sugar beet = assay: Test B pre/postemergence sugar beet; assay type: in vivo, Beta vulgaris
# Outline: as §1
# velvetleaf = assay: Test B pre/postemergence velvetleaf; assay type: in vivo, Abutilon theophrasti
# Outline: as §1
# wild oat = assay: Test B pre/postemergence wild oat; assay type: in vivo, Avena fatua
# Outline: as §1
# purple nutsedge = assay: Test B pre/postemergence purple nutsedge; assay type: in vivo, Cyperus rotundus
# Outline: as §1
# smallflower flatsedge = assay: Test B flood test smallflower flatsedge; assay type: in vivo, Cyperus difformis
# Outline: (§2)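 Read-out is a visual response score from 0 (no effect) to 10 (complete control), assigned by comparison with untreated controls. Treatment was applied at the 2-leaf stage, and plants stayed in the greenhouse for twelve to sixteen days before scoring.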
# bamyardgrass = assay: Test B flood test barnyardgrass; assay type: in vivo, Echinochloa crus-galli
# Outline: as §2
# [1] = Postemergence, Rate 62 g/ha, scale 0 to 10, 0 is no effect, 10 is complete control
# [2] = Postemergence, Rate 250 g/ha, scale 0 to 10, 0 no effect, 10 complete control
# [3] = Preemergence, Rate 62 g/ha, scale 0 to 10 (0 no effect, 10 complete control)
# [4] = Preemergence, Rate 125 g/ha, scale 0 to 10 (0 no effect, 10 complete control)
# [5] = Preemergence, Rate 250 g/ha, scale of 0 to 10 where 0 is no effect and 10 is complete control
# [6] = Preemergence, Rate 500 g/ha, scale 0 (no effect) to 10 (complete control)
# [7] = Rate 125 g/ha, Postemergence, scale 0 to 10, 0 no effect, 10 complete control
# [8] = Rate 500 g/ha, Postemergence, scale 0 to 10, 0 no effect, 10 complete control
# [9] = Rate 125 g/ha, Postemergence section (flood test species), scale 0 to 10, 0 no effect, 10 complete control
# [10] = Rate 500 g/ha, listed under Postemergence (flood test species), scale 0 to 10, 0 no effect, 10 complete control
# [11] = flood test, listed under Postemergence, Rate 250 g/ha, scale 0 to 10, 0 no effect, 10 complete control
structure (smiles),measurement,setting,value
Cc1cccc(C(C)C)c1-n1c(=O)on(C(=O)N(c2ccc(Cl)cc2)C(C)C)c1=O [Compound 64],Blackgrass plant response rating,blackgrass; [1],0
same,Blackgrass plant response rating,blackgrass; [2],0
same,Blackgrass plant response rating,blackgrass; [3],0
same,"Plant response rating, Blackgrass",blackgrass; [4],0
same,"Plant response rating, Blackgrass",blackgrass; [5],0
same,Blackgrass plant response rating,blackgrass; [6],0
same,Blackgrass plant response rating,blackgrass; [7],0
same,Blackgrass plant response rating,blackgrass; [8],0
same,B. signalgrass plant response rating,surinam grass; [1],0
same,B. signalgrass plant response rating,surinam grass; [2],0
same,B. signalgrass plant response rating,surinam grass; [3],0
same,"Plant response rating, B. signalgrass",surinam grass; [4],0
same,"Plant response rating, B. signalgrass",surinam grass; [5],0
same,B. signalgrass plant response rating,surinam grass; [6],0
same,B. signalgrass plant response rating,surinam grass; [7],0
same,B. signalgrass plant response rating,"surinam grass; Rate 500 g/ha, Postemergence, scale of 0 to 10 where 0 is no effect and 10 is complete control",0
same,Cocklebur plant response rating,cocklebur; [1],0
same,Cocklebur plant response rating,cocklebur; [2],0
same,Cocklebur plant response rating,cocklebur; [3],0
same,"Plant response rating, Cocklebur",cocklebur; [4],0
same,"Plant response rating, Cocklebur",cocklebur; [5],0
same,Cocklebur plant response rating,cocklebur; [6],0
same,Cocklebur plant response rating,cocklebur; [7],0
same,Cocklebur plant response rating,cocklebur; [8],0
same,Corn plant response rating,corn; [1],0
same,Corn plant response rating,corn; [2],0
same,Corn plant response rating,corn; [3],0
same,"Plant response rating, Corn",corn; [4],0
same,"Plant response rating, Corn",corn; [5],0
same,Corn plant response rating,corn; [6],0
same,Corn plant response rating,corn; [7],0
same,Corn plant response rating,corn; [8],0
same,Crabgrass plant response rating,crabgrass; [1],0
same,Crabgrass plant response rating,crabgrass; [2],0
same,Crabgrass plant response rating,crabgrass; [3],0
same,"Plant response rating, Crabgrass",crabgrass; [4],0
same,"Plant response rating, Crabgrass",crabgrass; [5],2
same,Crabgrass plant response rating,crabgrass; [6],3
same,Crabgrass plant response rating,crabgrass; [7],0
same,Crabgrass plant response rating,crabgrass; [8],0
same,Giant foxtail plant response rating,giant foxtail; [1],0
same,Giant foxtail plant response rating,giant foxtail; [2],0
same,Giant foxtail plant response rating,giant foxtail; [3],0
same,"Plant response rating, Giant foxtail",giant foxtail; [4],0
same,"Plant response rating, Giant foxtail",giant foxtail; [5],3
same,Giant foxtail plant response rating,giant foxtail; [6],4
same,Giant foxtail plant response rating,giant foxtail; [7],0
same,Giant foxtail plant response rating,giant foxtail; [8],0
same,Morningglory plant response rating,morningglory; [1],0
same,Morningglory plant response rating,morningglory; [2],0
same,Morningglory plant response rating,morningglory; [3],0
same,"Plant response rating, Morningglory",morningglory; [4],0
same,"Plant response rating, Morningglory",morningglory; [5],0
same,Morningglory plant response rating,morningglory; [6],0
same,Morningglory plant response rating,morningglory; [7],0
same,Morningglory plant response rating,morningglory; [8],0
same,Redroot pigweed plant response rating,pigweed; [1],0
same,Redroot pigweed plant response rating,pigweed; [2],0
same,Redroot pigweed plant response rating,pigweed; [3],0
same,"Plant response rating, Redroot pigweed",pigweed; [4],0
same,"Plant response rating, Redroot pigweed",pigweed; [5],0
same,Redroot pigweed plant response rating,pigweed; [6],0
same,Redroot pigweed plant response rating,pigweed; [7],0
same,Redroot pigweed plant response rating,pigweed; [8],0
same,Rape plant response rating,rape; [1],0
same,Rape plant response rating,rape; [2],0
same,Rape plant response rating,rape; [3],0
same,"Plant response rating, Rape",rape; [4],0
same,"Plant response rating, Rape",rape; [5],0
same,Rape plant response rating,rape; [6],0
same,Rape plant response rating,rape; [7],0
same,Rape plant response rating,rape; [8],0
same,Soybean plant response rating,soybean; [1],0
same,Soybean plant response rating,soybean; [2],0
same,Soybean plant response rating,soybean; [3],0
same,"Plant response rating, Soybean",soybean; [4],0
same,"Plant response rating, Soybean",soybean; [5],0
same,Soybean plant response rating,soybean; [6],0
same,Soybean plant response rating,soybean; [7],0
same,Soybean plant response rating,soybean; [8],1
same,Sugarbeets plant response rating,sugar beet; [1],0
same,Sugarbeets plant response rating,sugar beet; [2],0
same,Sugarbeets plant response rating,sugar beet; [3],0
same,"Plant response rating, Sugarbeets",sugar beet; [4],0
same,"Plant response rating, Sugarbeets",sugar beet; [5],0
same,Sugarbeets plant response rating,sugar beet; [6],0
same,Sugarbeets plant response rating,sugar beet; [7],0
same,Sugarbeets plant response rating,sugar beet; [8],0
same,Velvetleaf plant response rating,velvetleaf; [1],0
same,Velvetleaf plant response rating,velvetleaf; [2],0
same,Velvetleaf plant response rating,velvetleaf; [3],0
same,"Plant response rating, Velvetleaf",velvetleaf; [4],0
same,"Plant response rating, Velvetleaf",velvetleaf; [5],0
same,Velvetleaf plant response rating,velvetleaf; [6],0
same,Velvetleaf plant response rating,velvetleaf; [7],0
same,Velvetleaf plant response rating,velvetleaf; [8],0
same,Wild oats plant response rating,wild oat; [1],0
same,Wild oats plant response rating,wild oat; [2],0
same,Wild oats plant response rating,wild oat; [3],0
same,"Plant response rating, Wild oats",wild oat; [4],0
same,"Plant response rating, Wild oats",wild oat; [5],0
same,Wild oats plant response rating,wild oat; [6],0
same,Wild oats plant response rating,wild oat; [7],0
same,Wild oats plant response rating,wild oat; [8],0
same,Nutsedge plant response rating,purple nutsedge; [1],0
same,Nutsedge plant response rating,purple nutsedge; [2],0
same,Nutsedge plant response rating,purple nutsedge; [3],0
same,"Plant response rating, Nutsedge",purple nutsedge; [4],0
same,"Plant response rating, Nutsedge",purple nutsedge; [5],0
same,Nutsedge plant response rating,purple nutsedge; [7],0
same,Nutsedge plant response rating,purple nutsedge; [8],0
same,S. Flatsedge plant response rating,smallflower flatsedge; [1],0
same,S. Flatsedge plant response rating,smallflower flatsedge; [9],0
same,S. Flatsedge plant response rating,smallflower flatsedge; [10],0
same,S. Flatsedge plant response rating,smallflower flatsedge; [11],0
same,Barnyardgrass plant response rating,bamyardgrass; [1],0
same,Barnyardgrass plant response rating,bamyardgrass; [9],0
same,Barnyardgrass plant response rating,bamyardgrass; [10],0
same,Barnyardgrass plant response rating,bamyardgrass; [11],0

# From patent publication US6737383B1, “Herbicidal oxadiazolidines” (priority 1999, dated 2004)
